The values that follow come from article PMC12040169 (PLOS Biology, 2025).

One data set can be described thus: in vitro. To be noted: human, hela cells, % viability.
Consider `CC1OC(n2ccc(=S)[nH]c2=O)C(O)C1O` (stereo not drawn) [CBK012231], for which the viability at 28.5 h, 10 µM was 103%.

Consider `CC(CNC1CCCC1)C(O)(c1ccccc1)c1ccccc1` (stereo not drawn) [CBK012237C], for which the viability at 28.5 h, 10 µM stood at 101%.

With `Cc1ccccc1Nc1ccccc1C(=O)O` [CBK012249], the viability at 28.5 h, 10 µM was 113%.

Regarding `O=C(O)c1ccnc2ccccc12` [CBK012261], the viability at 28.5 h, 10 µM worked out at 88.2%.

On to `CC(c1ccc(Cl)cc1)N(CCN(C)C)c1ccccn1` (stereo not drawn) [CBK012273F], for which the viability at 28.5 h, 10 µM came out at 100%.

Take `COc1cc(C(=O)NN)cc(OC)n1` [CBK012275]: the viability at 28.5 h, 10 µM was 83.7%.

Take `O=C(O)C(Cc1ccc(O)cc1)c1ccccc1` (stereo not drawn) [CBK012287]: the viability at 28.5 h, 10 µM came to 84.7%.

`OC1(c2ccccc2)CCNCC1` [CBK012290]: the viability at 28.5 h, 10 µM came to 101%.

With `Cc1ccccc1SCC(C)C(=O)O` (stereo not drawn) [CBK012292], the viability at 28.5 h, 10 µM worked out at 83%.

Take `CC1=C(c2ccc(OC(C)(C)CN3CCCC3)cc2)C(C)CCC1` (stereo not drawn) [CBK012357C]: the viability at 28.5 h, 10 µM came to 86.1%.

As for `Oc1ccc(Nc2ccnc3cc(Cl)ccc23)cc1` [CBK012365C], the viability at 28.5 h, 10 µM came to 93.5%.

Consider `Cc1nncn1-c1ccc(Cl)cc1C(=O)c1ccccc1Cl` [CBK012372], for which the viability at 28.5 h, 10 µM was found to be 101%.

Take `O=C(c1ccccc1)c1cc(Cl)ccc1-n1ccnc1` [CBK012383]: the viability at 28.5 h, 10 µM was determined as 105%.

For `Nc1ncncc1-c1ccc(Cl)cc1` [CBK012407], the viability at 28.5 h, 10 µM was 90.9%.

Consider `CC(C)(Oc1cccc2ccccc12)C(=O)O` [CBK012409], for which the viability at 28.5 h, 10 µM was 94.5%.

On to `CCOC(=O)Cn1c(C)nc(C)cc1=O` [CBK012419], for which the viability at 28.5 h, 10 µM amounted to 103%.

With `Cc1cnoc1-c1cc(Br)cc(Br)c1O` [CBK012420], the viability at 28.5 h, 10 µM amounted to 104%.

For the compound `COC(=O)c1cc(Cl)c2ccccc2n1` [CBK012428], the viability at 28.5 h, 10 µM amounted to 80.4%.

As for `Cc1n[nH]c(=S)n1-c1ccc(Cl)cc1` [CBK012457], the viability at 28.5 h, 10 µM worked out at 94.5%.

For `O=C(c1ccc(Nc2ccnc3cc(C(F)(F)F)ccc23)cc1)N1CCC(O)(c2cccc(C(F)(F)F)c2)CC1` [CBK012467], the viability at 28.5 h, 10 µM stood at 91.6%.

With `CN(C)[C@H]1CC[C@@H](Cc2ccccc2)C[C@@H]1NC(=O)c1ccc(Cl)c(Cl)c1` [CBK012488], the viability at 28.5 h, 10 µM stood at 97.3%.

With `CC(C)(C)Cc1ccc(CC(=O)O)c(OCc2ccccc2)n1` [CBK012508], the viability at 28.5 h, 10 µM turned out to be 92.6%.

Consider `O=C(O)CCCCc1nn(-c2ccc(Cl)c(Cl)c2)c2c1CCC2` [CBK012529], for which the viability at 28.5 h, 10 µM is 97.5%.

Consider `CC(=O)c1c(C)oc(C)c1C(C)=O` [CBK012535], for which the viability at 28.5 h, 10 µM was 88.2%.

Regarding `CN(C)CCCC(O)(c1ccccc1)c1ccccc1` [CBK012599], the viability at 28.5 h, 10 µM came to 109%.

With `O=P(O)(O)Cc1ccccc1-c1ccccc1` [CBK012659], the viability at 28.5 h, 10 µM is 111%.

As for `CC(C)Nc1cccnc1N1CCN(C(=O)c2cc3cc(NS(=O)(=O)CCc4ccncc4)ccc3[nH]2)CC1` [CBK012661], the viability at 28.5 h, 10 µM stood at 95.8%.

For `O=c1c(Cl)nc(Cl)c(C2CCCCC2)n1Cc1ccccc1` [CBK012671], the viability at 28.5 h, 10 µM came out at 87.6%.

With `CC(C)(C)Nc1cc(NCCc2ccccc2)nc(N)n1` [CBK012708], the viability at 28.5 h, 10 µM worked out at 86.8%.

Consider `COC(=O)c1cccc(CCC2CC(=O)C=C(O)C2)c1` (stereo not drawn) [CBK012720], for which the viability at 28.5 h, 10 µM turned out to be 93.7%.

Regarding `NC(=O)C(NCc1ccccc1)c1ccc(Cl)cc1` (stereo not drawn) [CBK012748], the viability at 28.5 h, 10 µM amounted to 84%.

Consider `CN(CC(=O)O)C(=O)OCc1ccccc1` [CBK012752], for which the viability at 28.5 h, 10 µM was found to be 101%.

For `c1ccc(COc2ccc(N3CCNCC3)cc2)cc1` [CBK012776C], the viability at 28.5 h, 10 µM was 83.5%.

Take `COc1ccc2[nH]cc(CC3CCNCC3)c2c1` [CBK012779]: the viability at 28.5 h, 10 µM turned out to be 104%.

Consider `CC(=O)Nc1ccc(CNc2ccc(Cl)cc2)cc1` [CBK012799], for which the viability at 28.5 h, 10 µM worked out at 104%.

With `Cc1cccc(-n2c(C3CCCNC3=O)n[nH]c2=S)c1` (stereo not drawn) [CBK012842], the viability at 28.5 h, 10 µM came to 89%.

Regarding `CCOC(=O)Cc1csc(NS(=O)(=O)c2cc(C)c(Cl)cc2Cl)n1` [CBK012872], the viability at 28.5 h, 10 µM came to 91.3%.

Regarding `CC(C)NCC(O)c1c2c(cc3c1CCC3)CCC2` (stereo not drawn) [CBK012972F], the viability at 28.5 h, 10 µM was found to be 108%.

Take `CC(C)n1c(COc2ccc(OC(F)(F)F)cc2)n[nH]c1=S` [CBK012989]: the viability at 28.5 h, 10 µM came out at 92.9%.

Regarding `Cn1ncc(Nc2ccccc2)c1C(=O)O` [CBK013004], the viability at 28.5 h, 10 µM amounted to 114%.

`CC(C)CC1(C(CCN2C(=O)c3ccccc3C2=O)C(=O)NO)CCN(Cc2cccc(F)c2)C1=O` (stereo not drawn) [CBK013032]: the viability at 28.5 h, 10 µM is 83.8%.

`O=C(NC1CCCCC1)NS(=O)(=O)c1ccc(CCNC(=O)c2cnc3ccccc3n2)cc1` [CBK013051]: the viability at 28.5 h, 10 µM amounted to 87.1%.

With `CCCCCn1c(Cc2ccccc2)n[nH]c1=O` [CBK013059], the viability at 28.5 h, 10 µM came to 98.3%.

For `Clc1ccc2c(c1)CCC(NCC1COc3ccccc3O1)C2` (stereo not drawn) [CBK013077C], the viability at 28.5 h, 10 µM came to 97.5%.

As for `COc1cccc(OC)c1OCCNC1CCc2cc(Cl)ccc2C1` (stereo not drawn) [CBK013079C], the viability at 28.5 h, 10 µM was 88.9%.

As for `C#CCNCc1ccc(O)cc1` [CBK013235C], the viability at 28.5 h, 10 µM stood at 87.4%.

On to `CC(C)(C)NCC(O)c1ccc(O)c2c1C1CCC2CC1` (stereo not drawn) [CBK013269C], for which the viability at 28.5 h, 10 µM is 93.9%.

For the compound `CCCCCn1c(-c2ccccc2)n[nH]c1=O` [CBK013288], the viability at 28.5 h, 10 µM is 83.3%.

In the case of `O/N=C1\CC2(CCCCC2)c2ccccc21` [CBK013318], the viability at 28.5 h, 10 µM came to 83%.

As to `c1ccc2c(c1)/C(=N/OCCN1CCCC1)CC21CCCCC1` [CBK013322], the viability at 28.5 h, 10 µM stood at 110%.

`CCN(CC)CCO/N=C1\CC2(CCCCC2)c2ccccc21` [CBK013325]: the viability at 28.5 h, 10 µM was 101%.

For `CN(C)CCO/N=C1\CC2(CCCC2)c2ccc(Cl)cc21` [CBK013334], the viability at 28.5 h, 10 µM came out at 78.1%.

On to `OC(CCNC1CCCCC1)(c1ccccc1)c1ccccc1` [CBK013339], for which the viability at 28.5 h, 10 µM was determined as 101%.

For the compound `O=S(=O)(O)c1cccc2cccc(Nc3ccccc3)c12` [CBK013362G], the viability at 28.5 h, 10 µM came to 84.8%.

For `O=C(Nc1cccc(C(F)(F)F)c1)N1CCN(CCCCc2ccc(F)cc2)CC1` [CBK013363C], the viability at 28.5 h, 10 µM was determined as 90.4%.

With `CC(C)(C)OC(=O)NC1CCc2ccccc2N(Cc2ccccc2)C1=O` (stereo not drawn) [CBK013366], the viability at 28.5 h, 10 µM came out at 97.1%.

With `c1coc(COc2cncc(N3CCNCC3)n2)c1` [CBK013393], the viability at 28.5 h, 10 µM came to 94.2%.

For `O=c1c(N2CCNCC2)nccn1CCOc1cccc(Cl)c1Cl` [CBK013463], the viability at 28.5 h, 10 µM turned out to be 92.2%.

As for `COc1cc(OC)c(C(C)=O)c(OCCOc2nccnc2N2CCNCC2)c1` [CBK013497T], the viability at 28.5 h, 10 µM is 95.8%.

As to `c1ccc(OCCNc2nccnc2N2CCNCC2)cc1` [CBK013527], the viability at 28.5 h, 10 µM came out at 93.3%.

`CN(CCOc1ccc(CC2SC(=O)NC2=O)cc1)c1ccccn1` (stereo not drawn) [CBK013537]: the viability at 28.5 h, 10 µM is 101%.

The data set is the same for the next values; noted with them: human, hela cells, % viability, bulk resorufin, single well.
As to `COc1cc(Cl)ccc1NC(=O)Oc1cccc2cnccc12` [CBK012882], the viability at 28.5 h, 10 µM is 79.9%.

With `COc1ccc(Cl)cc1N1CCNCC1` [CBK013449C], the viability at 28.5 h, 10 µM was determined as 89.4%.
